The target in the first assay is TAAR1 (Mus musculus, UniProt Q923Y8). As to the kind of experiment: TAAR1 radioligand binding, membranes of stably transfected HEK293 cells (mouse). The note with it: mouse/rat; cell not marked 'rat'; radioligand [3H]-rac-2-(1,2,3,4-tetrahydro-1-naphthyl)-2-imidazoline, 4° C.; read-out: Ki (μM) mouse/rat. A digest of the protocol:
(§1)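 Competition binding on membranes from HEK293 cells stably expressing the TAAR1 species ortholog, in HEPES-NaOH pH 7.0 with 10 mM MgCl2 and 2 mM CaCl2, 30 min at 4° C with [3H]-rac-2-(1,2,3,4-tetrahydro-1-naphthyl)-2-imidazoline. Competitors 10 pM–30 μM, duplicates; non-specific binding with 10 μM unlabelled ligand; filtration and scintillation counting.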
As for `NC1=N[C@@H](COc2cccc(Cl)c2)CO1` [Example 343, (S)-4-(3-Chloro-phenoxymethyl)-4,5-dihydro-oxazol-2-ylamine], the Ki amounted to 0.0028 µM.
For `Cc1cc(F)ccc1[C@H]1COC(N)=N1` [Example 348, (+)-(S)-4-(4-Fluoro-2-methyl-phenyl)-4,5-dihydro-oxazol-2-ylamine], the Ki came out at 0.0036 µM.
On the same count and under the same terms, then `NC1=N[C@@H](COCc2ccccc2)CO1` [Example 350, (S)-4-Benzyloxymethyl-4,5-dihydro-oxazol-2-ylamine], with 0.0064 µM; and `NC1=N[C@@H](COc2ccc(F)cc2F)CO1` [Example 353, (S)-4-(2,4-Difluoro-phenoxymethyl)-4,5-dihydro-oxazol-2-ylamine], with 0.0014 µM; and `NC1=N[C@@H](COc2ccccc2F)CO1` [Example 354, (S)-4-(2-Fluoro-phenoxymethyl)-4,5-dihydro-oxazol-2-ylamine], with 0.0003 µM.
For `CCC(C[C@H]1COC(N)=N1)c1cccc(Cl)c1F` (stereo partly drawn) [Example 355, (S)-4-[2-(3-Chloro-2-fluoro-phenyl)-butyl]-4,5-dihydro-oxazol-2-ylamine], the Ki worked out at 0.0043 µM.
For the compound `CCC(C[C@H]1COC(N)=N1)c1ccc(F)c(Cl)c1` (stereo partly drawn) [Example 356, (S)-4-[2-(3-Chloro-4-fluoro-phenyl)-butyl]-4,5-dihydro-oxazol-2-ylamine], the Ki amounted to 0.0043 µM.
For the compound `CCC(C[C@H]1COC(N)=N1)c1cc(F)cc(Cl)c1` (stereo partly drawn) [Example 357, (S)-4-[2-(3-Chloro-5-fluoro-phenyl)-butyl]-4,5-dihydro-oxazol-2-ylamine], the Ki was 0.0068 µM.
As to `CCC(C[C@H]1COC(N)=N1)c1cc(Cl)ccc1F` (stereo partly drawn) [Example 358, (S)-4-[2-(5-Chloro-2-fluoro-phenyl)-butyl]-4,5-dihydro-oxazol-2-ylamine], the Ki was 0.0084 µM.
`CCc1cc(Cl)ccc1[C@H]1COC(N)=N1` [Example 364, (+)-(S)-4-(4-Chloro-2-ethyl-phenyl)-4,5-dihydro-oxazol-2-ylamine]: the Ki came to 0.002 µM.
Same read-out and setting: then `NC1=N[C@@H](c2ccc(Br)cc2F)CO1` [Example 367, (+)-(S)-4-(4-Bromo-2-fluoro-phenyl)-4,5-dihydro-oxazol-2-ylamine], with 0.001 µM; and `NC1=N[C@@H](c2ccc(Cl)cc2C2CC2)CO1` [Example 369, (+)-(S)-4-(4-Chloro-2-cyclopropyl-phenyl)-4,5-dihydro-oxazol-2-ylamine], with 0.0009 µM.
Still for that read-out and setting: then `NC1=N[C@@H](CSc2ccc(Cl)cc2)CO1` [Example 370, (R)-4-(4-Chloro-phenylsulfanylmethyl)-4,5-dihydro-oxazol-2-ylamine], with 0.0037 µM.
For the compound `Cc1ccc([C@H]2COC(N)=N2)cc1Cl` [Example 374, (+)-(S)-4-(3-Chloro-4-methyl-phenyl)-4,5-dihydro-oxazol-2-ylamine], the Ki was found to be 0.0006 µM.

The test system of another assay is TAAR1. The assay is described as above. The following applies: TAAR1 binding assay, species not stated; read-out: calculated Kd value of the radioligand. A digest of the protocol:
as §1
The term Kd denotes the constant that tells how readily two partners part at equilibrium. `c1ccc2c(c1)CCCC2C1=NCCN1` (racemic) [[^3H]-rac-2-(1,2,3,4-tetrahydro-1-naphthyl)-2-imidazoline, reference compound]: the Kd was 60 nM.

The target in a further assay is TAAR1 (Rattus norvegicus, UniProt Q923Y9). Description: TAAR1 radioligand binding, membranes of stably transfected HEK293 cells (rat). The note with it: cell marked 'rat'; radioligand [3H]-rac-2-(1,2,3,4-tetrahydro-1-naphthyl)-2-imidazoline, 4° C.; read-out: Ki (μM) mouse/rat. On the procedure:
For the construction of expression plasmids the coding sequences of human, rat and mouse TAAR 1 were amplified from genomic DNA essentially as described by Lindemann et al.. The Expand High Fidelity PCR System (Roche Diagnostics) was used with 1.5 mM Mg^2+ and purified PCR products were cloned into pCR2.1-TOPO cloning vector (Invitrogen) following the instructions of the manufacturer. PCR products were subcloned into the pIRESneo2 vector (BD Clontech, Palo Alto, Calif.), and expression vectors were sequence verified before introduction in cell lines.
HEK293 cells (ATCC #CRL-1573) were cultured essentially as described Lindemann et al. (2005). For the generation of stably transfected cell lines HEK293 cells were transfected with the pIRESneo2 expression plasmids containing the TAAR coding sequences (described above) with Lipofectamine 2000 (Invitrogen) according to the instructions of the manufacturer, and 24 hrs post transfection the culture medium was supplemented with 1 mg/ml G418 (Sigma, Buchs, Switzerland). After a culture period of about 10 d clones were isolated, expanded and tested for responsiveness to trace amines (all compounds purchased from Sigma) with the cAMP Biotrak Enzyme immunoassay (EIA) System (Amersham) following the non-acetylation EIA procedure provided by the manufacturer.
Cells at confluence were rinsed with ice-cold phosphate buffered saline without Ca^2+ and Mg^2+ containing 10 mM EDTA and pelleted by centrifugation at 1000 rpm for 5 min at 4° C. The pellet was then washed twice with ice-cold phosphate buffered saline and cell pellet was frozen immediately by immersion in liquid nitrogen and stored until use at −80° C. Cell pellet was then suspended in 20 ml HEPES-NaOH (20 mM), pH 7.4 containing 10 mM EDTA, and homogenized with a Polytron (PT 3000, Kinematica) at 10,000 rpm for 10 s. The homogenate was centrifuged at 48,000×g for 30 min at 4° C. and the pellet resuspended in 20 ml HEPES-NaOH (20 mM), pH 7.4 containing 0.1 mM EDTA (buffer A), and homogenized with a Polytron at 10,000 rpm for 10 s. The homogenate was then centrifuged at 48,000×g for 30 min at 4° C. and the pellet resuspended in 20 ml buffer A, and homogenized with a Polytron at 10,000 rpm for 10 s. Protein concentration was determined by the method of Pierce (Rockford, Ill.). The homogenate was then centrifuged at 48,000×g for 10 min at 4° C., resuspended in HEPES-NaOH (20 mM), pH 7.0 including MgCl2 (10 mM) and […] homogenized with a Polytron at 10,000 rpm for 10 s.
Binding assay was performed at 4° C. in a final volume of 1 ml, and with an incubation time of 30 min. […] Non-specific binding was defined as the amount of [^3H]-rac-2-(1,2,3,4-tetrahydro-1-naphthyl)-2-imidazoline bound in the presence of the appropriate unlabelled ligand (10 μM). Competing ligands were tested in a wide range of concentrations (10 pM-30 μM). […] Each experiment was performed in duplicate. All incubations were terminated by rapid filtration through UniFilter-96 plates (Packard Instrument Company) and glass filter GF/C, pre-soaked for at least 2 h in polyethylenimine 0.3%, and using a Filtermate 96 Cell Harvester (Packard Instrument Company). The tubes and filters were then washed 3 times with 1 ml aliquots of cold buffer B. Filters were not dried and soaked in Ultima gold (45 μl/well, Packard Instrument Company) and bound radioactivity was counted by a TopCount Microplate Scintillation Counter (Packard Instrument Company).
For the compound `CC1(c2cccc(Cl)c2F)COC(N)=N1` (racemic) [Example 311, (RS)-4-(3-Chloro-2-fluoro-phenyl)-4-methyl-4,5-dihydro-oxazol-2-ylamine], the Ki turned out to be 0.0042 µM.
In the case of `CC1(c2ccc(F)cc2Cl)COC(N)=N1` (racemic) [Example 318, (RS)-4-(2-Chloro-4-fluoro-phenyl)-4-methyl-4,5-dihydro-oxazol-2-ylamine], the Ki worked out at 0.002 µM.
As to `Cc1cc([C@@]2(C)COC(N)=N2)ccc1Cl` [Example 281, (S)-4-(4-Chloro-3-methyl-phenyl)-4-methyl-4,5-dihydro-oxazol-2-ylamine], the Ki was 0.0019 µM.
Regarding `NC1=N[C@@H](COc2ccc(Cl)c(Cl)c2)CO1` [Example 284, (S)-4-(3,4-Dichloro-phenoxymethyl)-4,5-dihydro-oxazol-2-ylamine], the Ki was 0.0028 µM.
As to `NC1=N[C@@H](COc2cc(Cl)cc(Cl)c2)CO1` [Example 285, (S)-4-(3,5-Dichloro-phenoxymethyl)-4,5-dihydro-oxazol-2-ylamine], the Ki turned out to be 0.0045 µM.
Consider `CCC(C[C@H]1COC(N)=N1)c1cccc(Cl)c1` (stereo partly drawn) [Example 287, (S)-4-[2-(3-Chloro-phenyl)-butyl]-4,5-dihydro-oxazol-2-ylamine], for which the Ki is 0.0027 µM.
Turning to `NC1=N[C@@H](COc2ccc(Br)cc2)CO1` [Example 310, (S)-4-(4-Bromo-phenoxymethyl)-4,5-dihydro-oxazol-2-ylamine], the Ki turned out to be 0.009 µM.
As for `CC[C@]1(c2ccc(Cl)cc2)COC(N)=N1` [Example 313, (S)-4-(4-Chloro-phenyl)-4-ethyl-4,5-dihydro-oxazol-2-ylamine], the Ki came out at 0.005 µM.
In the case of `Cc1ccc(Cl)cc1[C@H]1COC(N)=N1` [Example 314, (+)-(S)-4-(5-Chloro-2-methyl-phenyl)-4,5-dihydro-oxazol-2-ylamine], the Ki came to 0.003 µM.
In the case of `NC1=N[C@H](c2ccc(Br)cc2Cl)CO1` [Example 315, (−)-(R)-4-(4-Bromo-2-chloro-phenyl)-4,5-dihydro-oxazol-2-ylamine], the Ki came to 0.0016 µM.
Still for that read-out and setting: then `NC1=N[C@@H](c2ccc(Br)cc2Cl)CO1` [Example 316, (+)-(S)-4-(4-Bromo-2-chloro-phenyl)-4,5-dihydro-oxazol-2-ylamine], with 0.0003 µM.
For the compound `NC1=N[C@@H](c2ccc(Br)c(F)c2)CO1` [Example 321, (+)-(S)-4-(4-Bromo-3-fluoro-phenyl)-4,5-dihydro-oxazol-2-ylamine], the Ki turned out to be 0.0014 µM.
As to `NC1=N[C@@H](CCc2ccccc2Br)CO1` [Example 322, (S)-4-[2-(2-Bromo-phenyl)-ethyl]-4,5-dihydro-oxazol-2-ylamine], the Ki worked out at 0.002 µM.

The values are drawn from patent publication US8604061B2, “2-aminooxazolines as TAAR1 ligands” (Hoffmann-La Roche Inc., priority 2007, dated 2013).
